Results as given in patent US4310660A, “Lincomycin compounds” (The Upjohn Company, priority 1980, dated 1982).
Structures can show the parent of a compound that is named as a salt. Where two headings read alike, the source gives them in different places.

Key:
[1] = test system: Clostridium tertium; assay: MIC vs. anaerobic bacteria, agar dilution; format: cell-based; conditions: UC6508, UC 6508, read-out: Minimal Inhibitory Concentration (MIC)
[2] = test system: Clostridium sordellii; assay: MIC vs. anaerobic bacteria, agar dilution; format: cell-based; conditions: Paraclostridium sordellii, UC6505, UC 6505, read-out: Minimal Inhibitory Concentration (MIC)
Experimental: (§1) The procedure for the above test is as follows: Serial two-fold dilutions of drug are prepared in 1.0 ml volumes of Schaedler Broth, and 9.0 ml of molten (47° C.) Wilkens-Chalgren Agar Medium, infra, is added to the antibiotic-supplemented broth. After mixing with the antibiotic, the agar is poured into 100 mm×20 mm petri dishes. The dishes are allowed to stand on the bench overnight prior to inoculation.
(§2) Cultures are streaked on Wilkens-Chalgren Agar, and grown for 48 hours at 37° C. in a BBL Anaerobe Jar. Growth from the plate is harvested, and a cell suspension is made in Schaedler broth to equal the turbidity of a 0.5 McFarland Standard (10^8 cells/ml). The suspension is pipetted into the wells of a Steers replicator, and approx. 1-2 μl is delivered to the surface of the agar plates. After allowing a few minutes for the inoculum to dry, the plates are placed in a BBL Anaerobe Jar (atomsphere of 85% N, 10% H, 5% CO2) and incubated at 37° C. for 72 hours.
(§3) The Minimal Inhibitory Concentration (MIC) is read as the least amount of drug that inhibits growth. A very faint film of growth, or <3 is colonies is considered negative.

[3] = test system: Clostridium tentani; assay: MIC vs. anaerobic bacteria, agar dilution; format: cell-based; conditions: UC6521, UC 6521, read-out: Minimal Inhibitory Concentration (MIC)
Experimental: as §1, §2, §3

[4] = test system: Clostridium novyi B; assay: MIC vs. anaerobic bacteria, agar dilution; format: cell-based; conditions: UC6329, UC 6329, read-out: Minimal Inhibitory Concentration (MIC)
Experimental: as §1, §2, §3

[5] = test system: Actinomyces naeslundii; assay: MIC vs. anaerobic bacteria, agar dilution; format: cell-based; conditions: UC5920, read-out: Minimal Inhibitory Concentration (MIC)
[6] = test system: Bacteroides melaninogenicus; assay: MIC vs. anaerobic bacteria, agar dilution; format: cell-based; conditions: UC6326, UC 6326, read-out: Minimal Inhibitory Concentration (MIC)
[7] = test system: D. pneumoniae I; assay: Mouse Protection Test; format: in vivo; conditions: Streptococcus pneumoniae, 168 h, strain Felton I, read-out: Median Protective Dose (CD50)
Description: (§4) Immediately before use, the suspensions were thawed quickly and properly diluted. Infection was via the intrapertioneal route.
(§5) Treatment of the infected groups was begun immediately and continued once per day for 4 days (first 24 hr period=1). Groups of untreated mice served as virulence controls for the culture.
(§6) Seven days after the treatment regimen was begun the surviving animals were sacrificed and the median protective dose of the antibiotic calculated on the basis of mortality rates in the treatment groups. The median protective dose and its 95% confidence interval were calculated according to the method of Spearmen & Karber as programmed on a 360 digital computer.
(§7) U-60,970E was also tested in vivo in standard laboratory mice which were experimentally infected with bacteria. The test was conducted in comparison with U-57,930E.

[8] = test system: D. pneumoniae III; assay: Mouse Protection Test; format: in vivo; conditions: strain MPI III, two experiments listed; for ED50: Streptococcus pneumoniae, 168 h, read-out: Median Protective Dose (CD50); for Median Protective Dose (CD50): 10080 min, listed as U-57930E . Hcl
Description: as §4, §5, §6, §7

[9] = test system: Peptococcus aerogenes; assay: MIC vs. anaerobic bacteria, agar dilution; format: cell-based; conditions: Peptoniphilus asaccharolyticus, UC6319, UC 6319, read-out: Minimal Inhibitory Concentration (MIC)
[10] = test system: Bacteroides fragilis; assay: MIC vs. anaerobic bacteria, agar dilution; format: cell-based
[11] = test system: Peptostreptococcus anaerobius; assay: MIC vs. anaerobic bacteria, agar dilution; format: cell-based; conditions: UC6321, UC 6321, read-out: Minimal Inhibitory Concentration (MIC)
[12] = test system: Clostridium perfringens; assay: microbe, parasite or virus in culture; format: cell-based
[13] = test system: Eubacterium limosum; assay: MIC vs. anaerobic bacteria, agar dilution; format: cell-based; conditions: UC6515, UC 6515, read-out: Minimal Inhibitory Concentration (MIC)
[14] = test system: Eubacterium lentum; assay: MIC vs. anaerobic bacteria, agar dilution; format: cell-based; conditions: Eggerthella lenta, UC6522, UC 6522, read-out: Minimal Inhibitory Concentration (MIC)
[15] = test system: Peptococcus magnus; assay: MIC vs. anaerobic bacteria, agar dilution; format: cell-based; conditions: Finegoldia magna, UC6258, UC 6258, read-out: Minimal Inhibitory Concentration (MIC)
[16] = test system: Propionibacterium acnes; assay: MIC vs. anaerobic bacteria, agar dilution; format: cell-based; conditions: Cutibacterium acnes

Compound: CC[C@@H]1CCN[C@H](C(=O)N[C@@H]([C@H]2O[C@H](SC)[C@H](O)[C@@H](O)[C@H]2O)[C@H](C)Cl)C1 [U-57,930E, 4-Cis-ethyl-1-pipecolic acid amide of 7-Cl-MTL.HCl]
- MIC [1]: 7.8 µg/mL
- MIC [2]: 0.5 µg/mL
- MIC [3]: ≤ 0.03 µg/mL
- MIC [4]: 0.12 µg/mL
- MIC [5]: 0.25 µg/mL
- MIC [6]: 0.06 µg/mL
- ED50 ([7]; oral): 15.4 mg/kg
- ED50 ([7]; sc, subcutaneous): 1.54 mg/kg
- ED50 ([8]; po, oral): 14.4 mg/kg
- ED50 ([8]; sc, subcutaneous): 2.68 mg/kg
- Median Protective Dose (CD50) ([8]; oral): 16.49 (10.51-25.88) mg/kg
- Median Protective Dose (CD50) ([8]; subcutaneous): 2.5 (1.69-3.69) mg/kg
- MIC [9]: 0.06 µg/mL
- MIC ([10]; UC6428, UC 6428, read-out: Minimal Inhibitory Concentration (MIC)): 0.25 µg/mL
- MIC ([10]; UC6513, UC 6513, read-out: Minimal Inhibitory Concentration (MIC)): 0.12 µg/mL
- MIC ([10]; UC6862, UC 6862, read-out: Minimal Inhibitory Concentration (MIC)): 15.6 µg/mL
- MIC ([10]; UC6864, UC 6864, read-out: Minimal Inhibitory Concentration (MIC)): 2 µg/mL
- MIC [11]: 0.12 µg/mL
- MIC ([12]; UC247, read-out: Minimal Inhibitory Concentration (MIC)): 0.12 µg/mL
- MIC ([12]; UC6509, read-out: Minimal Inhibitory Concentration (MIC)): 0.12 µg/mL
- MIC [13]: 2 µg/mL
- MIC [14]: 1 µg/mL
- MIC [15]: 0.06 µg/mL
- MIC ([16]; UC6564, UC 6564, read-out: Minimal Inhibitory Concentration (MIC)): 0.12 µg/mL
- MIC ([16]; UC6575, UC 6575, read-out: Minimal Inhibitory Concentration (MIC)): 0.06 µg/mL
